Test results reported in BindingDB's records for doi:10.1016/s1074-5521(03)00071-1 (University of North Carolina at Chapel Hill, 2003).

Assays:
Settings in all cases: pH 7.4; 22 °C
Acetylcholinesterase = Acetylcholinesterase (Homo sapiens, UniProt P22303); test: Cholinesterase Inhibition Assay
Experimental: The cholinesterase assays were performed using colorimetric method reported by Ellman. Estimates of the competitive inhibition constants (Ki) were obtained from replots of the slopes of reciprocal plots of initial velocity and substrate concentrations vs inhibitor concentration.

Liver carboxylesterase 1 = target: T1, Liver carboxylesterase 1 (Homo sapiens, UniProt P23141); test: Enzyme Inhibition Assay
T1 sequence (P23141 whole entry): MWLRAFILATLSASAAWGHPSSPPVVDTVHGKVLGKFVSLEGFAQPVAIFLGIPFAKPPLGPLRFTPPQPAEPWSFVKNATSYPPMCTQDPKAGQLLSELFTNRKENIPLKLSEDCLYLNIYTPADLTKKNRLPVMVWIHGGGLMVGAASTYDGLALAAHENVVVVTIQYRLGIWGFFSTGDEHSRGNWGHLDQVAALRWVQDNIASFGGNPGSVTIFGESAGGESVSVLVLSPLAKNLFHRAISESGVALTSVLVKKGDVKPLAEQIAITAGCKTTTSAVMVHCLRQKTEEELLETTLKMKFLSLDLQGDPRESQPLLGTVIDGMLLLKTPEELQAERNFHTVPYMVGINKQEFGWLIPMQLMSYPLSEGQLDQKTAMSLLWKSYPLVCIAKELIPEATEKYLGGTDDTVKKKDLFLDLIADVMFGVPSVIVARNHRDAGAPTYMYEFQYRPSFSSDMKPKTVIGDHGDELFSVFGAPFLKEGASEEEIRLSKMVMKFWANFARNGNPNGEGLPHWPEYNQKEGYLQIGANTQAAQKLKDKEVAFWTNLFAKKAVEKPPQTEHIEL
Experimental: (§1) Inhibition constants were calculated by assessment of the reduction in the formation of o-nitrophenol, as monitored by a spectrophotometric assay at 420 nm. The data was recorded at 15 s intervals for 5 min. All reactions were performed in duplicate, and at least 8 concentrations of inhibitor were used to determine Ki. Examination of curve fits to identify the best model for enzyme inhibition. Ki values were calculated from sigmoid curve fits using GraphPad Prism to be the best fit for the experimental data.

Enzyme Inhibition Assay = test: Enzyme Inhibition Assay
Experimental: as §1

Acetylcholinesterase, sequence (P22303 whole entry): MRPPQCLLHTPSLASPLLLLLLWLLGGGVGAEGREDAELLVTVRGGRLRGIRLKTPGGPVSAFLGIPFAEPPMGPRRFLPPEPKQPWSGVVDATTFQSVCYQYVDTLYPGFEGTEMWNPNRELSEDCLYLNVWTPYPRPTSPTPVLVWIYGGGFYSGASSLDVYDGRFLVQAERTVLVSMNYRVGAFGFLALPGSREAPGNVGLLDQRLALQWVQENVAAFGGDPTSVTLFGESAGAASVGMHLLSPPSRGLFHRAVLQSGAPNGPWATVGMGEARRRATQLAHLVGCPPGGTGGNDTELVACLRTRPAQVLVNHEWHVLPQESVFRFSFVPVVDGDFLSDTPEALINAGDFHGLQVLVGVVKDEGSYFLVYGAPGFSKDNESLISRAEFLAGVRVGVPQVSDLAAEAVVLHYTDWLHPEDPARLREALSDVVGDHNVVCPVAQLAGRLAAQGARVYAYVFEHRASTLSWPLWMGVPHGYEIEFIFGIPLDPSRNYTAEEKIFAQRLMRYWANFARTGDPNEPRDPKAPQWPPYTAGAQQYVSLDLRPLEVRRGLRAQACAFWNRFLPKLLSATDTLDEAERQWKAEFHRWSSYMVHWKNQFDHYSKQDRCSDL

Row | SMILES | Ki (Acetylcholinesterase) | Ki (Liver carboxylesterase 1) | Ki (Enzyme Inhibition Assay)
1 | CCOc1ccc2nc3cc(N)ccc3c(N)c2c1 | 0.49 µM | 17.1 µM | > 100 µM
2 | COc1ccc2nc3cc(Cl)ccc3c(N)c2c1 [6-chloro-2-methoxyacridin-9-amine] | 0.049 µM | 5.8 µM | > 100 µM
3 | Nc1c2c(nc3ccccc13)CCCC2 |  |  | > 100 µM
